Reference: patent US20240415819A1, “MACROCYCLIC COMPOUNDS AS PROTEASOME SUBUNIT BETA TYPE-5 INHIBITORS” (Lead Discovery Center GmbH, priority 2021, published 2024)

What was measured:
[1] = target: T1, β5 subunit of the human immunoproteasome (IPS) (Homo sapiens, UniProt P28062); test: β5 inhibition assay, human immunoproteasome (Suc-LLVY-AMC); type: biochemical; conditions: IC50 class, Suc-LLVY-AMC substrate
T1 construct: purchased Boston Biochem E-370
How it was run: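 Human immunoproteasome (1 nM final) was preincubated 10 min at RT with compound in 100 mM HEPES pH 7.5, 50 mM NaCl, 0.02% SDS, 1 mM DTT. Suc-LLVY-AMC (22.6 μM final) was then added for 4 h at RT in the dark. After stopping with 1 μM bortezomib, AMC fluorescence was read (ex 355/em 460 nm).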

[2] = system: RPMI 8226 (B lymphocyte cell line, multiple myeloma); test: 48 hr CTG viability assay, RPMI 8226; type: cell-based; conditions: Homo sapiens, RPMI-8226; 48 hr CTG; read-out: RPMI-8226 IC50
Description: (§1) A viability assay was conducted for 48 hours to evaluate the inhibition of cancer cell growth by proteasome inhibitors. Briefly, the candidate cell line was plated with a 96-well plate following density of cells, respectively. 6×10^3 Cells/well for A2780 (human ovarian cancer cell line) and MDA-MB-468 (breast carcinoma), 8×10^3 Cells/well for Hs746T (human gastric carcinoma cell line), 1.1×10^4 Cells/well for MM1 S and RPMI 8226 (multiple myeloma). After 24 hours, the cells were treated with various concentrations of the compound (ranging from 0.0015 uM to 10 uM). […] After 48 hours of incubation at 37° C., 5% CO2 incubator, cells were analyzed for viability using the CellTiter-Glo Luminescent Cell Viability assay (Promega, Cat #G7570). All viability assays were performed in duplicate and Luminescence was read using an Envision (Perkin Elmer, USA). Data were analyzed using XLfit software. […] (human gastric carcinoma cell line), MM1 S (B lymphoblast cell line), and RPMI 8226 (B lymphocyte cell line, multiple myeloma). Inhibition is indicated as IC50 [nM] (“-”=not measured).

[3] = target: T2, β5 subunit of the human constitutive proteasome (CPS) (Homo sapiens, UniProt P28074); test: β5 inhibition assay, human constitutive proteasome (Suc-LLVY-AMC); type: biochemical; conditions: IC50 class, Suc-LLVY-AMC substrate
T2 construct: purchased Boston Biochem E-360
Description: The enzymatic activity of the β5 subunit of the human constitutive proteasome (CPS) is analyzed. In another assay, which differs from the assay of the human constitutive proteasome only in using the human immunoproteasome (IPS) the enzymatic activity of the β5 subunit of the human immunoproteasome (IPS) is analyzed. […] Inhibition is indicated as IC50 [nM] (“-”=not measured).

[4] = system: A549 (human lung carcinoma cell line); test: Glo assay of A549 cells (Table 3; ProteasomeGlo plating scheme); type: cell-based; conditions: Homo sapiens; A549 cells; read-out: PGLo A549
Description: Inhibition is indicated as IC50 [nM] (“-”=not measured). […] • Chymotrypsin-Like Cell-Based Proteasome-GloTM Assay (Promega; […]) • Cell culture 384-well plates (Greiner BioOne; 781080) • Dispensing cassette, MultiDrop Standard tube dispensing cassette (Thermo Scientific; 24072670) • DPBS (Pan BioTech; P04-36500) • Cell culture 384-well plates (Greiner BioOne; 781080) • CPD source plate: diamond-shape plate (Labcyte; LP-0200) • Intermediate plate (Labcyte; P-05525) [table] • a. Remove the plates with cells from the incubator. • b. Take all the plates including the compound plate, intermediate plate and Staurosporine plate to the ECHO. • c. Click on “Open” in the ECHO software and select the protocol “QLI5_25ul_30 uM-Grenier”. • d. Follow the on-screen prompts and instructions once you click “Start” to insert the compound plate, intermediate plate and destination plates. • e. Change the final number of destination plates on the program. • f. Follow the on-screen prompts and instructions once you click “Start” to load the Staurosporine and destination plates. • g. Once all the compounds, DMSO and Staurosporine have been transferred, place the destination plates in a wet tissue box. • h. Place the destination plates back into the incubator and incubate at 37° C., 5% CO2 for 105 minutes. • i. Re-seal all the compound+Stauro diamond and intermediate plates and store in the dark. Chymotrypsin like ProteasomeGlo Assay • 1. Thaw the components of the ProteasomeGlo assay at room temperature including the ProteasomeGlo Buffer, the lyophilized Luciferin Detection Reagent and the Suc-LLVY-Glo Substrate. • 2. Reconstitute the Luciferin Detection Reagent in the amber coloured bottle by adding 50 ml of the ProteasomeGlo Buffer. • 3. Vortex the Suc-LLVY-Glo Substrate briefly to reconstitute the Substrate well. • 4. Spin down the Substrate and add 250 μl of the Substrate to the reconstituted Luciferin Detection Reagent from step 2. • 5. Briefly vortex the amber bottle with the mix to prepare a homogenous solution. • 6. Place the mix prepared in step 5 to sit at room temperature for 60 minutes. • 7. After 60 minutes, pipette 25 μl of the mix from step 5 into all wells with the cells. • 8. Shake the plates for 2-5 minutes to ensure the complete mixing of the ProteasomeGlo reagent with the cells. • 9. Leave the plates in the dark for 10-15 minutes. • 10. Measure the luminescence read-out using the Viktor and the protocol “Luminescence_384Well_0.2 sec”. (Note: The Protoeasome-GloTM Reagent (combined Proteasome-GloTM Substrate, Proteasome-GloTM Buffer and Luciferin Detection Reagent) can be stored at 4° C. or -20° C. for 1 month with minimal loss of activity.)

[5] = system: MM1 S (B lymphoblast cell line); test: 48 hr CTG viability assay, MM1S; type: cell-based; conditions: Homo sapiens, 48 hr CTG, read-out: MM1S IC50
Description: as §1

[6] = system: Hs 746T (human gastric carcinoma cell line); test: 48 hr CTG viability assay, Hs 746T; type: cell-based; conditions: Hs746T, 48 hr CTG, read-out: Hs 746T IC50
Description: as §1

| Structure (SMILES) | IC50 [1] | IC50 [2] | IC50 [3] | IC50 [4] | IC50 [5] | IC50 [6] |
| --- | --- | --- | --- | --- | --- | --- |
| Cc1ccc2cc1CNC(=O)[C@H](CCc1ccccc1)NC(=O)[C@@H](NC(=O)C1(CO)CCCC1)CC(=O)N1CCCC(CCO2)C1 (stereo partly drawn) [Compound 689, 1-(hydroxymethyl)-N-((9S,12S)-5^4-methyl-8,11,14-trioxo-9-phenethyl-4-oxa-7,10-diaza-1(3,1)-piperidina-5(1,3)-benzenacyclotetradecaphane-12-yl)cyclopentane-1-carboxamide] | < 100 nM | < 100 nM | < 100 nM | < 100 nM | < 100 nM |  |
| Cc1ccc2cc1CNC(=O)[C@H](CCc1ccccc1)NC(=O)[C@@H](NC(=O)N1CCNCC1)CC(=O)N1CCCC(CCO2)C1 (stereo partly drawn) [Compound 716, N-((9S,12S)-5^4-methyl-8,11,14-trioxo-9-phenethyl-4-oxa-7,10-diaza-1(3,1)-piperidina-5(1,3)-benzenacyclotetradecaphane-12-yl)piperazine-1-carboxamide] | < 100 nM | < 100 nM | < 100 nM | < 100 nM | < 100 nM | 100 to 500 nM |
| Cc1ccc2cc1CNC(=O)[C@H](CCc1ccccc1)NC(=O)[C@@H](NC(=O)C(C)(C)CO)CC(=O)NCCCO2 [Compound 736, 3-hydroxy-2,2-dimethyl-N-((9S,12S)-1^4_ methyl-7,10,13-trioxo-12-phenethyl-2-oxa-6,11,14-triaza-1(1,3)-benzenacyclopentadecaphane-9-yl)propanamide] | 1000 to 5000 nM | 1000 to 5000 nM | 1000 to 5000 nM | > 5000 nM | 1000 to 5000 nM | > 5000 nM |
| Cc1ccc2cc1CNC(=O)[C@H](CCc1cccnc1)NC(=O)[C@@H](NC(=O)Cc1ccccc1F)CC(=O)N1CCCC(CCO2)C1 (stereo partly drawn) [Compound 600, 2-(2-fluorophenyl)-N-((9S,12S)-5^4-methyl-8,11,14-trioxo-9-(2-(pyridin-3-yl)ethyl)-4-oxa-7,10-diaza-1(3,1)-piperidina-5(1,3)-benzenacyclotetradecaphane-12-yl)acetamide] | < 100 nM | < 100 nM | < 100 nM |  | < 100 nM |  |
| Cc1ccc2cc1CNC(=O)[C@H](CCc1ccccc1)NC(=O)[C@@H](NC(=O)C(C)(C)CF)CC(=O)N1CCCC(CCO2)C1 (stereo partly drawn) [Compound 650, 3-fluoro-2,2-dimethyl-N-((9S,12S)-5^4-methyl-8,11,14-trioxo-9-phenethyl-4-oxa-7,10-diaza-1(3,1)-piperidina-5(1,3)-benzenacyclotetradecaphane-12-yl)propanamide] | < 100 nM | < 100 nM | < 100 nM | < 100 nM | < 100 nM |  |
| Cc1ccc2cc1CNC(=O)[C@H](CCc1ccccc1)NC(=O)[C@@H](NC(=O)Cc1ccc(NC(=O)[C@@H](N)CC(=O)O)cc1C)CC(=O)N1CCCC(CCO2)C1 (some centres unmarked) [Compound 578] |  | < 100 nM |  |  | < 100 nM | < 100 nM |
| Cc1ccc2cc1CNC(=O)[C@H](CCc1ccccc1)NC(=O)[C@@H](NS(=O)(=O)C1CCCCC1)CC(=O)N1CCCC(CCO2)C1 (some centres unmarked) [Compound 579] |  | < 100 nM |  |  | < 100 nM | < 100 nM |
| Cc1ccc2cc1CNC(=O)[C@H](CCc1ccccc1)NC(=O)[C@@H](NC(=O)CCOC1CC3(C1)CN(C(=O)OC(C)(C)C)C3)CC(=O)N1CCCC(CCO2)C1 (some centres unmarked) [Compound 577] |  | < 100 nM |  |  | < 100 nM | < 100 nM |
| Cc1ccc2cc1CNC(=O)[C@H](CCc1ccccc1)NC(=O)[C@@H](NC(=O)C(C)(C)CN)CC(=O)N1CCCC(CCO2)C1 (stereo partly drawn) [Compound 682, 3-amino-2,2-dimethyl-N-((9S,12S)-5^4-methyl-8,11,14-trioxo-9-phenethyl-4-oxa-7,10-diaza-1(3,1)-piperidina-5(1,3)-benzenacyclotetradecaphane-12-yl)propanamide] | < 100 nM | < 100 nM | < 100 nM | < 100 nM | < 100 nM |  |
| Cc1ccc2cc1CNC(=O)[C@H](CCc1ccccc1)NC(=O)[C@@H](N1CC(C)(C)NC1=O)CC(=O)N1CCCC(CCO2)C1 (stereo partly drawn) [Compound 733, (9S,12S)-12-(4,4-dimethyl-2-oxoimidazolidin-1-yl)-5^4-methyl-9-phenethyl-4-oxa-7,10-diaza-1(3,1)-piperidina-5(1,3)-benzenacyclotetradecaphane-8,11,14-trione] | 100 to 500 nM | 1000 to 5000 nM | 1000 to 5000 nM | 1000 to 5000 nM | 100 to 500 nM |  |
| Cc1ccc2cc1CNC(=O)[C@H](CCc1ccccc1)NC(=O)[C@@H](NC(=O)C1(CO)CCC1)CC(=O)N1CCCC(CCO2)C1 (stereo partly drawn) [Compound 670, 1-(hydroxymethyl)-N-((9S,12S)-5^4-methyl-8,11,14-trioxo-9-phenethyl-4-oxa-7,10-diaza-1(3,1)-piperidina-5(1,3)-benzenacyclotetradecaphane-12-yl)cyclobutane-1-carboxamide] | < 100 nM | < 100 nM | < 100 nM | < 100 nM | < 100 nM |  |
| Cc1ccc2cc1CNC(=O)[C@H](CCc1ccccc1)NC(=O)[C@@H](NC(=O)C(C)(C)CO)CC(=O)N1CCC[C@@H](CCO2)C1 [Compound 644, 3-hydroxy-2,2-dimethyl-N-((13S,9S,12S)-5^4-methyl-8,11,14-trioxo-9-phenethyl-4-oxa-7,10-diaza-1(3,1)-piperidina-5(1,3)-benzenacyclotetradecaphane-12-yl)propanamide] | < 100 nM | < 100 nM | < 100 nM | < 100 nM | < 100 nM |  |
| Cc1ccc2cc1CNC(=O)[C@H](CCc1ccccc1)NC(=O)[C@@H](NC(=O)CCOCCCC1CCCC1)CC(=O)N1CCCC(CCO2)C1 (stereo partly drawn) [Compound 692, 3-(3-cyclopentylpropoxy)-N-((9S,12S)-5^4-methyl-8,11,14-trioxo-9-phenethyl-4-oxa-7,10-diaza-1(3,1)-piperidina-5(1,3)-benzenacyclotetradecaphane-12-yl)propanamide] | < 100 nM | < 100 nM | < 100 nM |  | < 100 nM | < 100 nM |
| Cc1ccc2cc1CNC(=O)[C@H](CCc1ccccc1)NC(=O)[C@@H](NC(=O)C(C)(C)CO)CC(=O)N1CCC[C@H](CCO2)C1 [Compound 573] |  | < 100 nM |  |  | < 100 nM |  |
